Experimental data from the supplement of paper PMC10307832.

What was measured:
[1] = compound: C1=CC=C(C(=C1)C2=CC=C(C=C2)C3=CSC4=C3C(=C(C(=O)N4)C#N)O)O + O=C(CCCCCCC(=O)Nc1ccccc1)NO [Vorinostat] (partner 1 µM); experiment: relative viability (nuclei count vs DMSO), 5 days (fraction); higher = more cells survive
Procedure, shortened: (§1)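 Relative viability equals treated-well nuclei counts divided by vehicle-well nuclei counts. Counts came from 4× images of lung cancer cell lines grown in 1536-well plates for 5 days after pin-tool dosing on the day after seeding. Dosing used one drug alone or a fixed anchor-drug dose plus five library-drug doses (not always all listed) in √10 steps, and values are medians of duplicate plates.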

TGX 221 + Vorinostat = compound: CC1=CN2C(=O)C=C(N=C2C(=C1)C(C)NC3=CC=CC=C3)N4CCOCC4 [TGX 221] + O=C(CCCCCCC(=O)Nc1ccccc1)NO [Vorinostat] (partner 1 µM); experiment: as above
Procedure, shortened: as §1

Cell Line	relative viability ([1]; first compound 0.08 µM)	relative viability ([1]; first compound 0.253 µM)	relative viability ([1]; first compound 0.8 µM)	relative viability ([1]; first compound 2.53 µM)	relative viability ([1]; first compound 8 µM)	relative viability (TGX 221 + Vorinostat; first compound 0.08 µM)	relative viability (TGX 221 + Vorinostat; first compound 0.253 µM)	relative viability (TGX 221 + Vorinostat; first compound 0.8 µM)	relative viability (TGX 221 + Vorinostat; first compound 2.53 µM)	relative viability (TGX 221 + Vorinostat; first compound 8 µM)
NCI-H3122	1	0.992	1.14	1.09	0.89	1.02	0.823	1.08	0.969	1.04
HCC-15	0.861	0.954	0.869	0.905	0.725	0.753	0.787	0.977	0.839	0.787
NCI-H2009	0.728	0.715	0.859	0.716	0.638	0.731	0.687	0.72	0.819	0.559
NCI-H23	0.541	0.559	0.572	0.525	0.242	0.638	0.625	0.579	0.498	0.659
NCI-H1734	0.747	0.767	0.751	0.803	0.765	0.675	0.67	0.787	0.702	0.764
NCI-H2170	0.9	0.819	0.921	0.778	0.616	0.754	0.758	0.767	0.759	0.831
NCI-H2342	0.801	0.83	0.871	0.71	0.586	0.697	0.711	0.836	0.804	0.793
HCC-366	–	0.35	0.348	0.309	0.315	0.357	0.327	0.365	0.292	0.351
HARA	–	0.792	0.701	–	0.371	0.508	0.475	0.575	0.517	0.471
NCI-H2087	0.336	0.672	0.685	0.764	0.918	0.814	0.855	0.483	0.664	0.932
NCI-H1650	0.462	0.546	0.498	0.531	0.435	0.482	0.478	0.521	0.676	0.48
NCI-H1666	0.905	1.04	0.993	1.03	0.984	0.958	0.963	1.06	1.06	1.1
LCLC-103H	0.722	0.81	0.707	0.767	0.728	0.761	0.806	0.708	0.647	0.766
HOP-62	0.586	0.856	0.607	0.647	0.522	0.57	0.581	0.667	0.521	0.542
BEN	0.567	0.678	0.59	0.531	0.573	0.588	0.572	0.523	0.501	0.547
UMC-11	–	0.352	0.409	0.381	0.412	0.417	0.391	0.402	0.373	0.359
NCI-H1755	0.822	0.913	0.735	0.761	0.687	0.677	0.681	0.775	0.718	0.667
SK-LU-1	0.737	0.727	0.655	0.761	0.671	0.644	0.682	0.72	0.776	0.712
NCI-H1793	0.58	1.05	0.497	0.634	0.681	0.612	0.521	0.589	0.592	0.588
NCI-H647	–	0.947	0.58	0.637	0.461	0.466	0.442	0.457	0.547	0.665
NCI-H1975	0.665	0.78	0.736	0.81	0.677	0.749	0.656	0.689	0.718	0.607
NCI-H1648	–	0.319	0.876	0.593	0.391	–	0.295	0.651	0.395	0.421
NCI-H2126	0.846	0.787	0.803	0.832	0.732	0.832	0.741	0.768	0.615	0.717

Cell Line	relative viability ([1]; first compound 0.08 µM)	relative viability ([1]; first compound 0.253 µM)	relative viability ([1]; first compound 0.8 µM)	relative viability ([1]; first compound 2.53 µM)	relative viability ([1]; first compound 8 µM)	relative viability (TGX 221 + Vorinostat; first compound 0.08 µM)	relative viability (TGX 221 + Vorinostat; first compound 0.253 µM)	relative viability (TGX 221 + Vorinostat; first compound 0.8 µM)	relative viability (TGX 221 + Vorinostat; first compound 2.53 µM)	relative viability (TGX 221 + Vorinostat; first compound 8 µM)
NCI-H1651	0.509	0.523	0.583	0.535	0.51	0.525	0.646	0.527	0.517	0.581
HCC-827	0.666	0.946	0.95	0.872	0.918	0.777	0.922	0.888	0.891	0.852
NCI-H2085	0.726	0.893	0.764	0.784	0.714	0.86	0.667	0.562	0.416	0.436
EPLC-272H	0.466	0.387	0.357	0.401	0.42	0.47	0.358	0.469	0.426	0.369
A-427	0.923	0.861	0.864	0.904	0.859	0.872	0.876	0.817	0.847	0.856
NCI-H2228	0.555	0.557	0.648	0.524	0.36	0.462	0.324	0.599	0.575	0.302
ABC-1	0.813	0.921	1.03	0.956	0.768	1.2	0.753	0.996	0.981	1.29
EMC-BAC-2	0.463	–	0.331	0.435	0.362	0.414	0.461	0.426	0.493	0.424
NCI-H2405	0.983	–	0.956	0.955	0.999	0.87	0.928	0.941	0.92	0.895
NCI-H1993	0.57	1.02	0.979	0.845	0.644	0.821	0.611	0.742	0.788	0.724
LU99A	0.501	0.478	0.702	0.49	0.425	0.431	0.514	0.588	0.356	0.529
ChaGo-K-1	0.733	0.821	0.801	0.822	0.683	0.742	0.758	0.749	0.727	0.707
NCI-H1355	0.627	0.658	0.626	0.578	0.592	0.614	0.577	0.591	0.629	0.558
NCI-H838	0.749	0.691	0.775	0.704	0.744	0.7	0.67	0.635	0.668	0.589
SK-MES-1	1.1	1.17	0.911	1.06	0.923	1.03	0.997	1.16	0.987	0.894
NCI-H460	0.529	0.339	0.866	0.924	0.582	0.654	0.632	0.655	0.691	0.595
NCI-H522	0.929	0.898	1.06	0.921	0.86	0.976	0.822	0.883	0.831	0.826
HCC-78	0.514	0.678	0.448	0.523	0.352	0.518	0.449	0.428	0.338	0.362
NCI-H358	0.641	0.647	0.666	0.839	0.484	0.746	0.663	0.71	0.668	0.602
H3255	0.823	0.863	–	0.886	0.784	0.779	0.823	0.816	0.782	0.845
NCI-H2023	0.677	0.793	0.56	0.725	0.453	0.552	0.701	0.759	0.495	0.502
NCI-H1944	0.682	0.637	0.571	0.479	0.478	–	0.547	0.488	0.476	0.488
LOU-NH91	0.892	0.926	0.888	0.886	0.848	0.888	0.963	0.957	0.902	0.9

Cell Line	relative viability ([1]; first compound 0.08 µM)	relative viability ([1]; first compound 0.253 µM)	relative viability ([1]; first compound 0.8 µM)	relative viability ([1]; first compound 2.53 µM)	relative viability ([1]; first compound 8 µM)	relative viability (TGX 221 + Vorinostat; first compound 0.08 µM)	relative viability (TGX 221 + Vorinostat; first compound 0.253 µM)	relative viability (TGX 221 + Vorinostat; first compound 0.8 µM)	relative viability (TGX 221 + Vorinostat; first compound 2.53 µM)	relative viability (TGX 221 + Vorinostat; first compound 8 µM)
NCI-H2347	0.507	0.59	0.55	0.539	0.568	0.745	0.506	0.478	0.618	0.465
CAL-12T	0.65	0.817	0.884	0.743	0.643	0.826	0.7	0.75	0.876	0.707
RERF-LC-KJ	0.639	0.763	0.751	0.714	0.544	0.684	0.708	0.678	0.69	0.678
HCC-44	1.15	1.12	1.13	1.08	1.06	1.12	1.22	1.17	1.17	1.21
NCI-H650	0.412	0.438	0.422	0.426	0.309	0.425	0.488	0.459	0.542	0.401
NCI-H1395	–	0.683	0.551	0.618	0.606	0.601	0.537	0.553	0.557	0.664
COR-L 105	0.763	0.807	0.805	1.01	0.706	0.906	0.884	0.869	0.726	0.82
COR-L23	0.404	0.477	0.409	0.38	0.379	0.425	0.409	0.436	0.469	0.336
LXF-289	0.902	0.831	0.833	0.82	0.907	0.77	0.757	0.732	0.714	0.771
PC-14	0.64	0.863	0.563	0.71	0.567	0.682	0.626	0.687	0.748	0.662
EKVX	0.672	1.01	0.758	0.653	0.561	0.767	0.758	0.841	0.608	0.539
NCI-H322M	0.841	0.756	0.817	0.865	0.855	0.865	0.876	0.839	0.872	0.718
NCI-H520	0.655	0.571	0.69	0.726	0.604	0.599	0.564	0.627	0.493	0.53
LC-2-ad	0.627	0.643	0.705	0.722	0.654	0.676	0.682	0.761	0.71	0.67
NCI-H596	0.588	0.574	0.589	0.48	0.527	0.571	0.588	0.685	0.494	0.524
LCLC-97TM1	0.614	1.42	0.636	0.724	0.431	0.819	0.459	0.856	0.615	0.847
NCI-H1437	0.788	0.934	0.889	0.874	0.603	0.888	0.922	0.858	0.852	0.779
NCI-H1915	0.455	0.468	0.449	0.552	0.46	0.436	0.486	0.489	0.437	0.554
NCI-H441	0.551	0.812	0.858	0.818	0.742	0.717	0.785	0.724	0.856	0.859
SW 1573	0.701	0.723	0.716	0.76	0.59	0.648	0.655	0.739	0.888	0.778
NCI-H661	0.803	0.836	0.772	0.84	0.6	0.794	0.755	0.78	0.925	0.785
